Results reported in ChEMBL document CHEMBL3600281, “Synthesis and anticancer properties of new (dihydro)pyranonaphthoquinones and their epoxy analogs” (Bioorg Med Chem Lett, 2015).
Calls of active or inactive are those of the source. The calls are words filed in the database; no cut-off is given here.

Tests used:
KB = test: Cytotoxicity against human KB cells; assay type: functional, cell-based
HepG2 = test: Cytotoxicity against human HepG2 cells; assay type: functional, cell-based
MCF7 = test: Cytotoxicity against human MCF7 cells; assay type: functional, cell-based
[1] = Cytotoxicity against human Lu cells; assay type: functional, cell-based
Bacillus subtilis = test: Antibacterial activity against Bacillus subtilis; assay type: functional, organism-based
Staphylococcus aureus = test: Antibacterial activity against Staphylococcus aureus; assay type: functional, organism-based
Escherichia coli = test: Antibacterial activity against Escherichia coli; assay type: functional, organism-based
Pseudomonas aeruginosa = test: Antibacterial activity against Pseudomonas aeruginosa; assay type: functional, organism-based
Candida albicans = test: Antifungal activity against Candida albicans; assay type: functional, organism-based

Structure (SMILES)	IC50 (KB) [µM]	IC50 (HepG2) [µM]	IC50 (MCF7) [µM]	IC50 [1] [µM]	Activity (Bacillus subtilis)	Activity (Staphylococcus aureus)	Activity (Escherichia coli)	Activity (Pseudomonas aeruginosa)	Activity (Candida albicans)
CC1=CC2=C(CO1)C(=O)c1ccccc1C2=O	5.6	6.7	29.5	13.1	inactive	Active	inactive	inactive	inactive
O=C1c2ccccc2C(=O)[C@]23COC(c4ccccc4)=C[C@]12O3	> 32.9	> 32.9	> 32.9	> 32.9	inactive	inactive	inactive	inactive	inactive
CC(C)C1C[C@@]23O[C@]2(CO1)C(=O)c1ccccc1C3=O (some centres undefined)	> 32.6	> 32.6	> 32.6	> 32.6	inactive	inactive	inactive	inactive	inactive
O=C1C2=C(CC(c3ccccc3)OC2)C(=O)c2ccccc21 (centres undefined)	16.1	18.7	27.2	> 34.4	inactive	inactive	inactive	inactive	inactive
CC(C)C1CC2=C(CO1)C(=O)c1ccccc1C2=O (centres undefined)	17.5	19.8	26.2	> 39	inactive	inactive	inactive	inactive	inactive
CC(C)C1=CC2=C(CO1)C(=O)c1ccccc1C2=O	4.1	10.7	6.7	14.9	inactive	Active	inactive	inactive	inactive
Cc1c2ccncc2c(C)c2c1[nH]c1ccccc12 [ELLIPTECINE]		1.3	1.8	2.2					
CC1=C[C@@]23O[C@]2(CO1)C(=O)c1ccccc1C3=O	> 41.3	> 41.3	> 41.3	> 41.3	inactive	inactive	inactive	inactive	inactive
O=C1c2ccccc2C(=O)[C@]23COC(c4ccc(F)cc4)C[C@]12O3 (some centres undefined)	> 30.8	> 30.8	> 30.8	> 30.8	inactive	inactive	inactive	inactive	inactive
O=C1C2=C(COC(c3ccc(F)cc3)=C2)C(=O)c2ccccc21	1.5	3.6	12.9	11.5	inactive	inactive	inactive	inactive	inactive
CC1CC2=C(CO1)C(=O)c1ccccc1C2=O (centres undefined)	25.3	22.5	22.1	23.2	inactive	inactive	inactive	inactive	inactive
O=C1C2=C(COC(c3ccccc3)=C2)C(=O)c2ccccc21	7.5	12.2	> 34.7	> 34.7	inactive	inactive	inactive	inactive	inactive
O=C1c2ccccc2C(=O)[C@]23COC(c4ccc(F)cc4)=C[C@]12O3	> 31	> 31	> 31	> 31	inactive	inactive	inactive	inactive	inactive
CC1C[C@@]23O[C@]2(CO1)C(=O)c1ccccc1C3=O (some centres undefined)	> 41	> 41	> 41	> 41	inactive	inactive	inactive	inactive	inactive
O=C1C2=C(CC(c3ccc(F)cc3)OC2)C(=O)c2ccccc21 (centres undefined)	20.6	23.4	> 32.4	22.1	inactive	inactive	inactive	inactive	inactive
